In PubChem BioAssay (NCI):
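Method: 48-hour compound exposure of cells in 96-well plates, five concentrations, linear interpolation of endpoints. Here, GI50 denotes the concentration required for 50% inhibition of growth. Definition used: TGI = concentration required for complete inhibition of growth.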

Key:
Test in all cases: DTP human tumour cell line panel, 48 h
[1] = tested on: 786-0 renal
[2] = tested on: A498 renal
[3] = tested on: A549 NSCLC
[4] = tested on: ACHN renal
[5] = tested on: BT-549 breast
[6] = tested on: CAKI-1 renal
[7] = tested on: CCRF-CEM leukemia
[8] = tested on: COLO 205 colon
[9] = tested on: DU-145 prostate
[10] = tested on: EKVX NSCLC
[11] = tested on: HCC-2998 colon
[12] = tested on: HCT-116 colon
[13] = tested on: HCT-15 colon
[14] = tested on: HOP-62 NSCLC
[15] = tested on: HOP-92 NSCLC
[16] = tested on: HS 578T breast
[17] = tested on: HT29 colon
[18] = tested on: IGROV1 ovarian
[19] = tested on: K-562 leukemia
[20] = tested on: KM12 colon
[21] = tested on: LOX IMVI melanoma
[22] = tested on: M14 melanoma
[23] = tested on: MALME-3M melanoma
[24] = tested on: MCF7 breast
[25] = tested on: MDA-MB-231 breast
[26] = tested on: MDA-MB-435
[27] = tested on: MDA-N
[28] = tested on: MOLT-4 leukemia
[29] = tested on: NCI-H226 lung
[30] = tested on: NCI-H23 lung
[31] = tested on: NCI-H460 lung
[32] = tested on: NCI-H522 lung
[33] = tested on: NCI/ADR-RES ovarian
[34] = tested on: OVCAR-3 ovarian
[35] = tested on: OVCAR-4 ovarian
[36] = tested on: OVCAR-5 ovarian
[37] = tested on: OVCAR-8 ovarian
[38] = tested on: PC-3 prostate
[39] = tested on: RPMI-8226 leukemia
[40] = tested on: RXF 393 renal
[41] = tested on: SF-268 CNS
[42] = tested on: SF-295 CNS
[43] = tested on: SF-539 CNS
[44] = tested on: SK-MEL-2 melanoma
[45] = tested on: SK-MEL-28 melanoma
[46] = tested on: SK-MEL-5 melanoma
[47] = tested on: SK-OV-3 ovarian
[48] = tested on: SN12C renal
[49] = tested on: SNB-19 CNS
[50] = tested on: SNB-75 CNS
[51] = tested on: SR leukemia
[52] = tested on: SW-620 colon
[53] = tested on: T-47D breast
[54] = tested on: TK-10 renal
[55] = tested on: U251 CNS
[56] = tested on: UACC-257 melanoma
[57] = tested on: UACC-62 melanoma
[58] = tested on: UO-31 renal
[59] = tested on: HL-60(TB) leukemia

CCOP(=O)(OCC)c1c(C(=O)OC)cc(=O)[nH]c1-c1ccc(C)cc1
TGI [1]: > 53.4 µM | TGI [2]: 53.8 µM | TGI [3]: 31.5 µM | TGI [4]: 9.45 µM | TGI [5]: 20.3 µM | TGI [6]: 19 µM | TGI [7]: 6.91 µM | TGI [8]: 15.2 µM | TGI [9]: 17.5 µM | TGI [10]: 17 µM | TGI [11]: 33.5 µM | TGI [12]: > 51.1 µM | TGI [13]: 27.2 µM | TGI [14]: 41.7 µM | TGI [15]: 12.3 µM | TGI [16]: 49.1 µM | TGI [17]: 42.1 µM | TGI [18]: 20.6 µM | TGI [19]: > 78.4 µM | TGI [20]: 33.6 µM | TGI [21]: > 100 µM | TGI [22]: 27.8 µM | TGI [23]: 19.9 µM | TGI [24]: > 49.7 µM | TGI [25]: 76.3 µM | TGI [26]: 37.4 µM | TGI [27]: > 61.1 µM | TGI [28]: 20.6 µM | TGI [29]: 29.6 µM | TGI [30]: 33.5 µM | TGI [31]: 43.4 µM | TGI [32]: 3.03 µM | TGI [33]: > 57.5 µM | TGI [34]: 25.2 µM | TGI [35]: 22.5 µM | TGI [36]: 20.5 µM | TGI [37]: > 47.1 µM | TGI [38]: 34.2 µM | TGI [39]: 19.8 µM | TGI [40]: 27.3 µM | TGI [41]: > 52.1 µM | TGI [42]: 40.9 µM | TGI [43]: 23 µM | TGI [44]: 32.4 µM | TGI [45]: 34.7 µM | TGI [46]: 28.8 µM | TGI [47]: 49.4 µM | TGI [48]: > 57 µM | TGI [49]: > 54.3 µM | TGI [50]: 29.3 µM | TGI [51]: 11.5 µM | TGI [52]: 23.5 µM | TGI [53]: 18.1 µM | TGI [54]: 27.9 µM | TGI [55]: 29.3 µM | TGI [56]: 30.1 µM | TGI [57]: 20.4 µM | TGI [58]: 13.8 µM

CC(=O)c1ccc2c3c1[C@@H]1O[C@@H]1c1cccc(c1-3)[C@@H]1O[C@H]21
TGI [1]: 24.9 µM | TGI [2]: > 85.8 µM | TGI [3]: 37.4 µM | TGI [4]: 37.4 µM | TGI [5]: 35.1 µM | TGI [6]: 15 µM | TGI [7]: > 100 µM | TGI [8]: 28.2 µM | TGI [9]: 23.2 µM | TGI [10]: 39.5 µM | TGI [12]: 13.9 µM | TGI [13]: 12.5 µM | TGI [59]: 35 µM | TGI [14]: 36.6 µM | TGI [15]: 29.7 µM | TGI [16]: 70.7 µM | TGI [17]: > 27.9 µM | TGI [18]: 2.44 µM | TGI [19]: > 100 µM | TGI [20]: 21.4 µM | GI50 [21]: 2.6 µM | TGI [21]: 6.21 µM | TGI [22]: 22.3 µM | TGI [23]: 20.3 µM | TGI [24]: > 40.1 µM | TGI [25]: 42.9 µM | TGI [26]: 25.7 µM | TGI [27]: 39.9 µM | TGI [28]: > 100 µM | TGI [29]: > 95.1 µM | TGI [30]: 23.3 µM | TGI [32]: 13 µM | TGI [33]: > 74.6 µM | TGI [34]: 30.4 µM | TGI [35]: 27.3 µM | TGI [36]: 34.7 µM | TGI [37]: 18.1 µM | TGI [38]: > 52.3 µM | TGI [39]: > 100 µM | TGI [40]: 25.8 µM | TGI [41]: 27.4 µM | TGI [42]: 38.3 µM | TGI [44]: > 57.1 µM | TGI [45]: 13 µM | TGI [46]: 26 µM | TGI [47]: 76.1 µM | TGI [48]: 23.9 µM | TGI [49]: > 60.9 µM | TGI [50]: 34.5 µM | TGI [51]: > 100 µM | TGI [52]: 7.99 µM | TGI [53]: 23.7 µM | TGI [54]: > 77.1 µM | TGI [55]: 19.3 µM | TGI [56]: > 60.2 µM | TGI [57]: 31.1 µM | TGI [58]: 30.2 µM

CC1(CF)SCc2nc3ccccc3n21 (stereo not drawn)
TGI [1]: > 100 µM | TGI [2]: > 100 µM | TGI [3]: > 100 µM | TGI [4]: > 100 µM | TGI [5]: > 100 µM | TGI [6]: > 100 µM | TGI [8]: > 100 µM | TGI [9]: > 100 µM | TGI [10]: > 100 µM | TGI [11]: > 100 µM | TGI [12]: > 100 µM | TGI [13]: > 100 µM | TGI [59]: > 100 µM | TGI [14]: > 100 µM | TGI [15]: > 100 µM | TGI [16]: > 100 µM | TGI [17]: > 100 µM | TGI [18]: > 100 µM | TGI [20]: > 100 µM | TGI [21]: > 100 µM | TGI [22]: > 100 µM | TGI [23]: > 100 µM | TGI [24]: > 100 µM | TGI [25]: > 100 µM | TGI [26]: > 100 µM | TGI [27]: > 100 µM | TGI [29]: > 100 µM | TGI [30]: > 100 µM | TGI [31]: > 100 µM | TGI [32]: > 100 µM | TGI [33]: > 100 µM | TGI [34]: > 100 µM | TGI [36]: > 100 µM | TGI [37]: > 100 µM | TGI [38]: > 100 µM | TGI [39]: > 100 µM | TGI [40]: > 100 µM | TGI [41]: > 100 µM | TGI [42]: > 100 µM | TGI [43]: > 100 µM | TGI [45]: > 100 µM | TGI [46]: > 100 µM | TGI [47]: > 100 µM | TGI [48]: > 100 µM | TGI [49]: > 100 µM | TGI [50]: > 100 µM | TGI [51]: > 100 µM | TGI [52]: > 100 µM | TGI [53]: > 100 µM | TGI [54]: > 100 µM | TGI [55]: > 100 µM | TGI [56]: > 100 µM | TGI [57]: > 100 µM | TGI [58]: > 100 µM

CCOC(=O)/C=C(\C(=O)OCC)n1cc(C)c(=O)n(Cc2cnnn2CCCCOC(C)=O)c1=O
TGI [1]: 28 µM | TGI [2]: 37.5 µM | TGI [3]: 60.7 µM | TGI [4]: 4.83 µM | TGI [5]: 22.6 µM | TGI [6]: 8.73 µM | GI50 [7]: 1.32 µM | TGI [7]: 4.71 µM | TGI [9]: > 55.8 µM | TGI [10]: 25.2 µM | TGI [11]: 43.9 µM | TGI [12]: 22.7 µM | TGI [13]: > 25.2 µM | TGI [59]: 6.73 µM | TGI [14]: > 68.1 µM | TGI [15]: 4.83 µM | TGI [16]: > 66.4 µM | TGI [17]: 21.3 µM | TGI [18]: 28.1 µM | TGI [19]: > 35.9 µM | TGI [20]: 34.4 µM | TGI [21]: 18.9 µM | TGI [22]: 86.2 µM | TGI [23]: 3.79 µM | TGI [24]: 21.5 µM | TGI [25]: 50.2 µM | TGI [26]: 26.1 µM | TGI [27]: 55.8 µM | TGI [28]: > 25.6 µM | TGI [29]: 30.4 µM | TGI [30]: 36.8 µM | TGI [31]: 65.7 µM | TGI [32]: 3.33 µM | TGI [33]: 35.8 µM | TGI [34]: 39.1 µM | TGI [35]: 58 µM | TGI [36]: 39.5 µM | TGI [37]: 15.6 µM | TGI [38]: > 71.3 µM | TGI [39]: > 26.7 µM | TGI [40]: 9.1 µM | TGI [41]: 54.1 µM | TGI [42]: > 76 µM | TGI [43]: 5.66 µM | TGI [44]: 53 µM | TGI [45]: 25.1 µM | TGI [46]: > 52.2 µM | TGI [47]: > 92.4 µM | TGI [48]: 39.3 µM | TGI [49]: > 66.5 µM | TGI [50]: 38.3 µM | TGI [51]: 5.86 µM | TGI [52]: > 38.4 µM | TGI [53]: > 51 µM | TGI [54]: 13.7 µM | TGI [55]: 49.2 µM | TGI [56]: 31.7 µM | TGI [57]: 31.7 µM | TGI [58]: 30 µM
